Measurements from PubChem BioAssay (NCI).
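Five concentrations, 48 hours, 96-well plates. TGI is the concentration that stops growth completely.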

Columns and labels:
Test in all cases: growth of human tumour cells (NCI), 48 h
786-0 renal = test system: 786-0 renal
A498 renal = test system: A498 renal
A549 NSCLC = test system: A549 NSCLC
ACHN renal = test system: ACHN renal
BT-549 breast = test system: BT-549 breast
CAKI-1 renal = test system: CAKI-1 renal
CCRF-CEM leukemia = test system: CCRF-CEM leukemia
COLO 205 colon = test system: COLO 205 colon
DU-145 prostate = test system: DU-145 prostate
EKVX NSCLC = test system: EKVX NSCLC
HCC-2998 colon = test system: HCC-2998 colon
HCT-116 colon = test system: HCT-116 colon
HCT-15 colon = test system: HCT-15 colon
HL-60(TB) leukemia = test system: HL-60(TB) leukemia
HOP-62 NSCLC = test system: HOP-62 NSCLC
HS 578T breast = test system: HS 578T breast
HT29 colon = test system: HT29 colon
IGROV1 ovarian = test system: IGROV1 ovarian
K-562 leukemia = test system: K-562 leukemia
KM12 colon = test system: KM12 colon
LOX IMVI melanoma = test system: LOX IMVI melanoma
M14 melanoma = test system: M14 melanoma
MALME-3M melanoma = test system: MALME-3M melanoma
MCF7 breast = test system: MCF7 breast
MDA-MB-231 breast = test system: MDA-MB-231 breast
MDA-MB-435 = test system: MDA-MB-435
MDA-N = test system: MDA-N
MOLT-4 leukemia = test system: MOLT-4 leukemia
NCI-H226 lung = test system: NCI-H226 lung
NCI-H23 lung = test system: NCI-H23 lung
NCI-H460 lung = test system: NCI-H460 lung
NCI-H522 lung = test system: NCI-H522 lung
OVCAR-8 ovarian = test system: OVCAR-8 ovarian
PC-3 prostate = test system: PC-3 prostate
RPMI-8226 leukemia = test system: RPMI-8226 leukemia
SF-268 CNS = test system: SF-268 CNS
SF-295 CNS = test system: SF-295 CNS
SF-539 CNS = test system: SF-539 CNS
SK-MEL-28 melanoma = test system: SK-MEL-28 melanoma
SK-MEL-5 melanoma = test system: SK-MEL-5 melanoma
SK-OV-3 ovarian = test system: SK-OV-3 ovarian
SN12C renal = test system: SN12C renal
SNB-19 CNS = test system: SNB-19 CNS
SR leukemia = test system: SR leukemia
SW-620 colon = test system: SW-620 colon
T-47D breast = test system: T-47D breast
TK-10 renal = test system: TK-10 renal
UACC-257 melanoma = test system: UACC-257 melanoma
UACC-62 melanoma = test system: UACC-62 melanoma
UO-31 renal = test system: UO-31 renal
NCI/ADR-RES ovarian = test system: NCI/ADR-RES ovarian
OVCAR-3 ovarian = test system: OVCAR-3 ovarian
OVCAR-4 ovarian = test system: OVCAR-4 ovarian
OVCAR-5 ovarian = test system: OVCAR-5 ovarian
SK-MEL-2 melanoma = test system: SK-MEL-2 melanoma
U251 CNS = test system: U251 CNS

COc1cc2c(c(OC)c1)C(C)=NC(C)C2 (configuration not stated) gave a TGI (786-0 renal) greater than 100 µM, a TGI (A498 renal) greater than 100 µM and a TGI (A549 NSCLC) greater than 100 µM. For the same compound, the TGI (ACHN renal) was greater than 100 µM, the TGI (BT-549 breast) was greater than 100 µM and the TGI (CAKI-1 renal) was greater than 100 µM. It also gave a TGI (CCRF-CEM leukemia) greater than 100 µM, a TGI (COLO 205 colon) greater than 100 µM and a TGI (DU-145 prostate) greater than 100 µM. For the same compound, the TGI (EKVX NSCLC) was greater than 100 µM, the TGI (HCC-2998 colon) was greater than 100 µM and the TGI (HCT-116 colon) was greater than 100 µM. It also gave a TGI (HCT-15 colon) greater than 100 µM, a TGI (HL-60(TB) leukemia) greater than 100 µM and a TGI (HOP-62 NSCLC) greater than 100 µM. For the same compound, the TGI (HS 578T breast) was greater than 100 µM, the TGI (HT29 colon) was greater than 100 µM and the TGI (IGROV1 ovarian) was greater than 100 µM. The TGI (K-562 leukemia) was greater than 100 µM, the TGI (KM12 colon) was greater than 100 µM and the TGI (LOX IMVI melanoma) was greater than 100 µM. It also gave a TGI (M14 melanoma) greater than 100 µM, a TGI (MALME-3M melanoma) greater than 100 µM and a TGI (MCF7 breast) greater than 100 µM. For the same compound, the TGI (MDA-MB-231 breast) was greater than 100 µM, the TGI (MDA-MB-435) was greater than 100 µM and the TGI (MDA-N) was greater than 100 µM. For the same compound, the TGI (MOLT-4 leukemia) was greater than 100 µM, the TGI (NCI-H226 lung) was greater than 100 µM and the TGI (NCI-H23 lung) was greater than 100 µM. It also gave a TGI (NCI-H460 lung) greater than 100 µM, a TGI (NCI-H522 lung) greater than 100 µM and a TGI (OVCAR-8 ovarian) greater than 100 µM. It also gave a TGI (PC-3 prostate) greater than 100 µM, a TGI (RPMI-8226 leukemia) greater than 100 µM and a TGI (SF-268 CNS) greater than 100 µM. The TGI (SF-295 CNS) was greater than 100 µM, the TGI (SF-539 CNS) was greater than 100 µM and the TGI (SK-MEL-28 melanoma) was greater than 100 µM. The TGI (SK-MEL-5 melanoma) was greater than 100 µM, the TGI (SK-OV-3 ovarian) was greater than 100 µM and the TGI (SN12C renal) was greater than 100 µM. The TGI (SNB-19 CNS) was greater than 100 µM, the TGI (SR leukemia) was greater than 100 µM and the TGI (SW-620 colon) was greater than 100 µM. It also gave a TGI (T-47D breast) greater than 100 µM, a TGI (TK-10 renal) greater than 100 µM and a TGI (UACC-257 melanoma) greater than 100 µM. It also gave a TGI (UACC-62 melanoma) greater than 100 µM and a TGI (UO-31 renal) greater than 100 µM.
O=C(Nc1ccc(Cl)cc1)Oc1ccc(C(=S)Nc2ccc(Br)cc2)cc1 gave a TGI (786-0 renal) of 48.6 µM, a TGI (A498 renal) of 54.9 µM and a TGI (A549 NSCLC) greater than 100 µM. It also gave a TGI (ACHN renal) greater than 100 µM, a TGI (BT-549 breast) of 54.1 µM and a TGI (CAKI-1 renal) of 35.8 µM. For the same compound, the TGI (CCRF-CEM leukemia) was 20.9 µM, the TGI (COLO 205 colon) was 23.6 µM and the TGI (DU-145 prostate) was greater than 100 µM. For the same compound, the TGI (EKVX NSCLC) was 19.6 µM, the TGI (HCC-2998 colon) was 33.6 µM and the TGI (HCT-116 colon) was 54.4 µM. For the same compound, the TGI (HCT-15 colon) was 35.7 µM, the TGI (HL-60(TB) leukemia) was 18.1 µM and the TGI (HOP-62 NSCLC) was greater than 100 µM. It also gave a TGI (HS 578T breast) greater than 100 µM, a TGI (HT29 colon) of 18.1 µM and a TGI (IGROV1 ovarian) of 25 µM. It also gave a TGI (K-562 leukemia) of 57.2 µM, a TGI (KM12 colon) of 25.5 µM and a TGI (LOX IMVI melanoma) of 9.32 µM. The TGI (M14 melanoma) was 36 µM, the TGI (MALME-3M melanoma) was 89.2 µM and the TGI (MCF7 breast) was 70.2 µM. For the same compound, the TGI (MDA-MB-435) was 38.6 µM, the TGI (MDA-N) was 67.2 µM and the TGI (MOLT-4 leukemia) was 46.2 µM. For the same compound, the TGI (NCI-H23 lung) was 63.9 µM, the TGI (NCI-H460 lung) was greater than 100 µM and the TGI (NCI-H522 lung) was 37.2 µM. It also gave a TGI (NCI/ADR-RES ovarian) of 61.4 µM, a TGI (OVCAR-3 ovarian) of 54.5 µM and a TGI (OVCAR-4 ovarian) of 75.8 µM. The TGI (OVCAR-5 ovarian) was 38.4 µM, the TGI (OVCAR-8 ovarian) was 22.7 µM and the TGI (PC-3 prostate) was greater than 100 µM. For the same compound, the TGI (RPMI-8226 leukemia) was greater than 100 µM, the TGI (SF-268 CNS) was greater than 100 µM and the TGI (SF-295 CNS) was greater than 100 µM. For the same compound, the TGI (SF-539 CNS) was 39.7 µM, the TGI (SK-MEL-2 melanoma) was 27.7 µM and the TGI (SK-MEL-28 melanoma) was 48.4 µM. The TGI (SK-MEL-5 melanoma) was 23 µM, the TGI (SK-OV-3 ovarian) was greater than 100 µM and the TGI (SNB-19 CNS) was greater than 100 µM. For the same compound, the TGI (SR leukemia) was 36.7 µM, the TGI (SW-620 colon) was greater than 100 µM and the TGI (T-47D breast) was 88.9 µM. For the same compound, the TGI (U251 CNS) was 75.5 µM, the TGI (UACC-257 melanoma) was greater than 100 µM and the TGI (UACC-62 melanoma) was 12.2 µM. The TGI (UO-31 renal) was greater than 100 µM.
